Measurements published in the supplement of paper PMC10331698.
± gives the standard deviation of the averaged measurements.

Tests used:
Experiment in all cases: level (log10 ratio to DMSO vehicle control); higher = higher biomarker level / cell amount than vehicle control
Conditions in all cases: in DMSO
[1] = compound: FC(F)(F)COC(OCC(F)(F)F)OCC(F)(F)F [tris(Trifluoroethoxy)methane]
Protocol: (§1)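 BioMAP Diversity Plus panel of 12 human primary cell co-culture systems (3C, 4H, LPS, SAg, BT, BF4T, BE3C, CASM3C, HDF3CGF, KF3CT, MyoF, Mphg). Compounds were added 1 h before stimulation and left for 24 h (MyoF 48 h; BT 72 h for soluble read-outs or 6 d for IgG). Biomarkers were read by ELISA, cytotoxicity by SRB, PBMC viability and proliferation by Alamar Blue. Each well value was divided by the mean of 8 DMSO control wells on the same plate and log10 transformed; duplicate blinded samples were tested at 4 concentrations.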

[2] = compound: OCC(F)(F)C(F)(F)C(F)(F)C(F)(F)C(F)(F)C(F)(F)C(F)(F)C(F)(F)C(F)(F)C(F)(F)C(F)(F)F [11:1 Fluorotelomer alcohol]
Protocol: as §1

[3] = compound: O=S(=O)(O)CCC(F)(F)C(F)(F)C(F)(F)C(F)(F)F [4:2 Fluorotelomer sulfonic acid]
Protocol: as §1

Test System | level (log10) ([1]; 6700 nM) | level (log10) ([1]; 20000 nM) | level (log10) ([1]; 60000 nM) | level (log10) ([2]; 1100 nM) | level (log10) ([2]; 3300 nM) | level (log10) ([2]; 10000 nM) | level (log10) ([3]; 6700 nM) | level (log10) ([3]; 20000 nM) | level (log10) ([3]; 60000 nM)
BF4T:CCL2/MCP-1 | 0.0025 ± 0.023 | -0.0115 ± 0.032 | 0.019 ± 0.061 | 0.018 ± 0.042 | 0.0235 ± 0.021 | 0.031 ± 0.023 | 0.0145 ± 0.037 | 0.0075 ± 0.00071 | 0.0395 ± 0.022
BT:sTNF-alpha | 0.017 ± 0.11 | -0.0365 ± 0.033 | 0.0085 ± 0.043 | -0.057 ± 0.031 | -0.127 ± 0.0064 | -0.0825 ± 0.079 | 0.0815 ± 0.16 | -0.063 ± 0.021 | 0.0095 ± 0.012
BE3C:CXCL11/I-TAC | 0.0065 ± 0.012 | -0.002 ± 0.0042 | 0.0015 ± 0.0021 | -0.0085 ± 0.018 | -0.025 ± 0.024 | -0.005 ± 0.013 | 0.008 ± 0.0042 | 0.043 ± 0.033 | 0.0485 ± 0.0092
4H:CD62P/P-selectin | -0.0215 ± 0.064 | 0.011 ± 0.088 | -0.0135 ± 0.053 | -0.111 ± 0.042 | -0.095 ± 0.079 | -0.139 ± 0.13 | -0.045 ± 0.075 | -0.0285 ± 0.059 | 0.005 ± 0.073
3C:Proliferation | -0.013 ± 0.061 | -0.001 ± 0.037 | 0.0035 ± 0.03 | -0.189 ± 0.012 | -0.436 ± 0.042 | -0.338 ± 0.051 | 0.0045 ± 0.083 | 0.0155 ± 0.013 | 0.003 ± 0.0085
BF4T:CD90 | -0.008 ± 0.0042 | -0.004 ± 0.0028 | -0.0035 ± 0.0021 | 0.0025 ± 0.011 | -0.0025 ± 0.011 | 0.002 ± 0.0042 | -0.0075 ± 0.0092 | -0.018 ± 0.0042 | -0.011 ± 0.014
BT:B cell Proliferation | -0.021 ± 0.021 | -0.005 ± 0.018 | -0.006 ± 0.073 | -0.103 ± 0.023 | -0.144 ± 0.026 | -0.44 ± 0.42 | 0.0295 ± 0.047 | 0.042 ± 0.034 | 0.0225 ± 0.0078
4H:CD87/uPAR | 0.0405 ± 0.07 | 0.0305 ± 0.052 | 0.0185 ± 0.064 | -0.0285 ± 0.037 | -0.0415 ± 0.028 | 0 ± 0.059 | 0.0185 ± 0.0078 | 0.003 ± 0.0085 | -0.031 ± 0.024
SAg:CD62E/E-Selectin | 0.004 ± 0.034 | -0.022 ± 0.025 | -0.0045 ± 0.026 | 0.045 ± 0.0057 | 0.0325 ± 0.018 | 0.0355 ± 0.035 | -0.016 ± 0.0085 | -0.011 ± 0.0071 | 0.009 ± 0.0071
BE3C:HLA-DR | -0.0015 ± 0.011 | 0.0155 ± 0.0064 | 0.006 ± 0.021 | -0.0755 ± 0.037 | -0.141 ± 0.015 | -0.163 ± 0.0042 | -0.013 ± 0.0085 | 0.003 ± 0.0042 | -0.0225 ± 0.0021
3C:CXCL9/MIG | -0.01 ± 0.018 | -0.008 ± 0.0057 | -0.0115 ± 0.0035 | -0.001 ± 0.014 | 0.0045 ± 0.0064 | 0.0145 ± 0.016 | -0.0005 ± 0.005 | 0.005 ± 0.011 | 0.001 ± 0.014
BE3C:EGFR | 0.022 ± 0.041 | 0.0095 ± 0.033 | 0.005 ± 0.021 | -0.022 ± 0.011 | -0.003 ± 0.018 | -0.019 ± 0.0099 | 0.0115 ± 0.00071 | -0.009 ± 0.0014 | 0.002 ± 0.0085
BE3C:CD87/uPAR | -0.01 ± 0.0028 | 0.0475 ± 0.047 | -0.0075 ± 0.023 | -0.035 ± 0.0014 | -0.0795 ± 0.012 | -0.0385 ± 0.026 | 0.002 ± 0.02 | -0.004 ± 0.021 | -0.007 ± 0.0071
BE3C:CXCL10/IP-10 | -0.001 ± 0.0085 | -0.0035 ± 0.018 | 0.0095 ± 0.0021 | -0.0345 ± 0.035 | -0.0745 ± 0.03 | -0.043 ± 0.0071 | -0.0055 ± 0.00071 | -0.006 ± 0.0085 | -0.0035 ± 0.011
BF4T:tPA | 0.0025 ± 0.022 | -0.0105 ± 0.016 | -0.004 ± 0.0014 | 0.0015 ± 0.0092 | -0.003 ± 0.0071 | 0.026 ± 0.024 | -0.0295 ± 0.023 | -0.0295 ± 0.03 | 0.0055 ± 0.06
SAg:SRB | -0.0155 ± 0.005 | -0.0135 ± 0.0021 | -0.013 ± 0.017 | -0.0415 ± 0.0092 | -0.066 ± 0.0028 | -0.065 ± 0.013 | -0.0105 ± 0.005 | -0.0085 ± 0.011 | -0.009 ± 0.011

Test System | level (log10) ([1]; 6700 nM) | level (log10) ([1]; 20000 nM) | level (log10) ([1]; 60000 nM) | level (log10) ([2]; 1100 nM) | level (log10) ([2]; 3300 nM) | level (log10) ([2]; 10000 nM) | level (log10) ([3]; 6700 nM) | level (log10) ([3]; 20000 nM) | level (log10) ([3]; 60000 nM)
BE3C:CXCL9/MIG | 0.001 ± 0.0071 | 0.0025 ± 0.023 | -0.0045 ± 0.018 | -0.0195 ± 0.00071 | -0.03 ± 0.0028 | -0.0385 ± 0.022 | -0.003 ± 0.0057 | -0.005 ± 0.0099 | 0.0095 ± 0.012
BT:sIL-17A | -0.0445 ± 0.0078 | -0.126 ± 0.15 | 0.079 ± 0.02 | 0.329 ± 0.16 | 0.401 ± 0.032 | 0.325 ± 0.06 | -0.127 ± 0.005 | -0.078 ± 0.2 | -0.116 ± 0.096
BF4T:SRB | -0.0065 ± 0.0064 | -0.0085 ± 0.00071 | -0.003 ± 0.014 | -0.003 ± 0.0014 | -0.0075 ± 0.0064 | 0.001 ± 0.014 | -0.012 ± 0.0042 | -0.0085 ± 0.0064 | -0.0075 ± 0.0064
4H:SRB | -0.0055 ± 0.0021 | -0.004 ± 0.0042 | -0.011 ± 0.017 | -0.0105 ± 0.0092 | -0.0195 ± 0.0035 | -0.0005 ± 0.025 | -0.0035 ± 0.00071 | -0.0055 ± 0.005 | -0.0035 ± 0.0092
BE3C:CD54/ICAM-1 | 0.016 ± 0.027 | 0.006 ± 0.0099 | 0.0075 ± 0.0092 | -0.0245 ± 0.00071 | -0.054 ± 0.0099 | -0.025 ± 0.0028 | -0.004 ± 0.0085 | -0.009 ± 0.014 | -0.0155 ± 0.0021
3C:HLA-DR | 0.014 ± 0.013 | 0.0065 ± 0.012 | 0.0205 ± 0.0035 | -0.019 ± 0.0042 | -0.034 ± 0.011 | -0.04 ± 0.016 | -0.019 ± 0.0028 | -0.0095 ± 0.0078 | -0.005 ± 0.028
BF4T:CD106/VCAM-1 | -0.014 ± 0.0042 | -0.005 ± 0.023 | 0.003 ± 0.023 | 0.0045 ± 0.016 | -0.021 ± 0.025 | -0.016 ± 0.02 | -0.0045 ± 0.0078 | -0.018 ± 0.0028 | 0.0085 ± 0.046
LPS:CD69 | -0.0085 ± 0.015 | 0.012 ± 0.017 | 0.0295 ± 0.018 | 0.006 ± 0.021 | 0.004 | -0.003 ± 0.031 | -0.0435 ± 0.052 | -0.0565 ± 0.029 | -0.058 ± 0.028
4H:CCL26/Eotaxin-3 | 0.018 ± 0.047 | 0.0235 ± 0.043 | 0.0415 ± 0.0078 | 0.0025 ± 0.0035 | -0.0055 ± 0.0092 | -0.0085 ± 0.0078 | -0.084 ± 0.042 | -0.004 ± 0.037 | 0.0225 ± 0.037
SAg:CD69 | 0.022 ± 0.0042 | 0.0105 ± 0.011 | 0.0215 ± 0.0035 | -0.0355 ± 0.021 | -0.0425 ± 0.029 | -0.038 ± 0.023 | -0.023 ± 0.027 | -0.0165 ± 0.028 | -0.028 ± 0.037
LPS:CD106/VCAM-1 | -0.025 ± 0.027 | 0.011 ± 0.013 | 0.002 ± 0.037 | -0.025 ± 0.0042 | -0.025 ± 0.02 | -0.015 ± 0.0028 | -0.0065 ± 0.013 | -0.006 ± 0.027 | -0.0125 ± 0.059
SAg:CXCL8/IL-8 | 0.002 ± 0.023 | 0.0085 ± 0.0021 | 0.0135 ± 0.00071 | 0.0365 ± 0.042 | -0.0005 ± 0.0035 | -0.121 ± 0.28 | -0.048 ± 0.093 | -0.007 ± 0.052 | 0.034 ± 0.042
LPS:CD40 | -0.0235 ± 0.023 | -0.0275 ± 0.0092 | -0.013 ± 0.027 | 0.0305 ± 0.028 | 0.0205 ± 0.0035 | -0.0275 ± 0.00071 | 0.0175 ± 0.079 | 0.0505 ± 0.043 | 0.032 ± 0.071
LPS:CD142/Tissue Factor | -0.013 ± 0.011 | -0.02 ± 0.027 | -0.0085 ± 0.06 | 0.056 ± 0.0028 | 0.084 ± 0.03 | 0.0995 ± 0.00071 | -0.051 ± 0.014 | -0.0105 ± 0.016 | -0.0015 ± 0.016
LPS:M-CSF | 0.003 ± 0.0085 | 0.005 ± 0.0042 | -0.0005 ± 0.0092 | -0.009 ± 0.018 | -0.054 ± 0.047 | -0.0825 ± 0.066 | -0.0265 ± 0.049 | 0.017 ± 0.0071 | 0.0025 ± 0.005
BT:sIL-17F | -0.024 ± 0.031 | -0.0565 ± 0.032 | 0.0095 ± 0.084 | 0.308 ± 0.0078 | 0.319 ± 0.096 | 0.33 ± 0.077 | -0.0025 ± 0.0035 | -0.009 ± 0.13 | 0.077 ± 0.021
